Data on 15 compounds can be found in patent US9657018B2, “Antagonists acting at multiple prostaglandin receptors for the treatment of inflammation” (Allergan, Inc., priority 2014, dated 2017).

Structures can show the parent of a compound that is named as a salt.

Common to all, as to type: cell-based
Assay [1] deals with T1, human prostanoid FP receptor (Homo sapiens, UniProt P43088).
T1 construct: expressed in transfected cells
As to the kind of experiment: FLIPR Ca2+ signaling antagonist assay, FP receptor stable cell line. Conditions: human recombinant FP in HEK-293 EBNA cells; standard agonist 17-phenyl-PGF2a; NA = no antagonism or Kb>=10,000 nM. The protocol:
(§1) The above compounds were tested for PG antagonist activity as follows using human recombinant prostanoid receptor (DP1, EP1-4, FP, IP and TP) stable cell lines:
(§2) In order to measure the response of Gs and Gi coupled prostanoid receptors as a Ca^2+ signal, chimeric G protein cDNAs were used. Stable cell lines over-expressing human prostanoid DP1, EP1-4, FP, IP, and TP receptors were established as follows:
(§3) Briefly, human prostanoid DP1, EP2, and EP4 receptor cDNAs were co-transfected with chimeric Gqs cDNA containing a haemagglutanin (HA) epitope; human prostanoid EP3 receptors were co-transfected with chimeric Gqi-HA; human EP1, FP, IP, and TP receptor cDNAs were expressed with no exogenous G-proteins. Gqs and Gqi chimeric cDNAs (Molecular Devices, Sunnyvale, Calif., U.S.A.), as well as cDNAs of prostanoid receptors, were cloned into a pCEP4 vector with a hygromycin B selection marker. Transfection into HEK-293 EBNA (Epstein-Barr virus nuclear antigen) cells was achieved by the FuGENE 6 transfection Reagent (Roche Applied Science, Indianapolis, Ind., USA). Stable transfectants were selected according to hygromycin resistance. Because Gqs and Gqi contained an HA epitope, G-protein expression was detected by Western blotting analysis using anti-mouse HA monoclonal antibody and horseradish peroxidase (HRP)-conjugated secondary antibody, while functional expression of prostanoid receptors was detected by FLIPR screening (Matias et al., 2004). These stable cell lines were validated using previously published antagonists at 10 μM against serial dilutions of standard agonists by FLIPR functional assays for Ca^2+ Signaling (as described below).
(§4) Ca^2+ signaling studies were performed using a FLIPR TETRA system (Molecular Devices, Sunnyvale, Calif., USA) in the 384-format. This is a high-throughput instrument for cell-based assays to monitor Ca^2+ signaling associated with GPCRs and ion channels. Cells were seeded at a density of 5×10^4 cells/well in BioCoat poly-D-lysine coated, black wall, clear bottom 384-well plates (BD Biosciences, Franklin lakes, NJ, USA) and allowed to attach overnight in an incubator at 37° C. The cells were then washed twice with HBSS-HEPES buffer (Hanks' balanced salt solution without bicarbonate and phenol red, 20 mM HEPES, pH 7.4) using an ELx405 Select CW Microplate Washer (BioTek, Winooski, Vt., USA). After 60 min of dye-loading in the dark using the Ca^2+-sensitive dye Fluo-4AM (Invitrogen, Carlsbad, Calif., USA), at a final concentration of 2×10^−6M, the plates were washed 4 times with HBSS-HEPES buffer to remove excess dye and leaving 50 μl of buffer in each well. The plates were then placed in the FLIPR TETRA instrument and allowed to equilibrate at 37° C. AGN-211377 was added in a 25 μl volume to each well to give final concentrations of 0.1 μl. M, 0.4M, 1 μM, 3 μl. M, 10 μl. M, and 30 μl. M; or 0.067 μM, 0.4M, 0.67 μM, and 1 μM for cells over-expressing TP receptors. After 4.5 minutes, a 7-point serial dilution of the standard agonist for the corresponding receptor, in a 25 μl volume was injected at the final concentrations from 10^−11M to 10^−5M in 10-fold serial dilution increments for cells expressing human recombinant DP1, EP1, EP2, EP3, EP4, FP, and IP receptors. The dose range for the standard agonist for human recombinant TP receptors was from 10^−12M to 10^−6M. HBSS-HEPES buffer was used as the negative control for the standard agonists. Cells were excited with LED (light emitting diode) excitation at 470-495 nm and emission was measured through an emission filter at 515-575 nm. Assay plates were read for 3.5 minutes using the FLIPR^TETRA. The peak increase in fluorescence intensity was recorded for each well. On each plate, negative controls, dose response of positive controls, and co-treatments of antagonist-agonist for each dose were in triplicates. Standard agonists were as follows: DP=BW 245C, EP1-EP4=PGE2, FP=17-phenyl-PGF2a, IP=Cicaprost, and TP=U-46619. […]

Assay [2] deals with T2, human prostanoid EP1 receptor (Homo sapiens, UniProt P34995).
T2 construct: expressed in transfected cells
T2 sequence (P34995 1-402): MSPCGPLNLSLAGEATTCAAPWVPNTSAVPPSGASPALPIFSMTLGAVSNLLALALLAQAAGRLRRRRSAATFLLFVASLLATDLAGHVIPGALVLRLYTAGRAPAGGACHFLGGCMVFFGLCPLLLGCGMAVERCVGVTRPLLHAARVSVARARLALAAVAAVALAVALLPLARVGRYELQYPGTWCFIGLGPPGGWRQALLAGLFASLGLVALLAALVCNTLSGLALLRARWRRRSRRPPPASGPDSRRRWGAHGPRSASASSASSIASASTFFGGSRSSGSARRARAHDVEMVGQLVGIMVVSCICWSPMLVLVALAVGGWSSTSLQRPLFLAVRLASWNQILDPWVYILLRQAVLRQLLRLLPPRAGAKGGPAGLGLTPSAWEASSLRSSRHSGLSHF
The assay can be described thus: FLIPR Ca2+ signaling antagonist assay, EP1 receptor stable cell line. Particulars: human recombinant EP1 in HEK-293 EBNA cells; standard agonist PGE2; NA = no antagonism or Kb>=10,000 nM. The protocol: as §1, §2, §3, §4

The target of assay [3] is T3, human prostanoid IP receptor (Homo sapiens, UniProt P43119).
T3 construct: expressed in transfected cells
T3 sequence (P43119 whole entry): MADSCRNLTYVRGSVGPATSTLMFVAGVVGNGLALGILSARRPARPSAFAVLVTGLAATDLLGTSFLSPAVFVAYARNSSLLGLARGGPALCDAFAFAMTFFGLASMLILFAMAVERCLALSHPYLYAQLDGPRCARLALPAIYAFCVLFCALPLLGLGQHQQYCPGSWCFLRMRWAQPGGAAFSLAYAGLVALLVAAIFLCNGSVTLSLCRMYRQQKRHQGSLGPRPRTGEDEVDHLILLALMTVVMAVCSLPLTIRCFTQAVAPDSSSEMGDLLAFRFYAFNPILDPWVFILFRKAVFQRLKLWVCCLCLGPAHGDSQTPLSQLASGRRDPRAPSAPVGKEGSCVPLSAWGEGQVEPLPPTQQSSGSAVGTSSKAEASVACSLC
As to the kind of experiment: FLIPR Ca2+ signaling antagonist assay, IP receptor stable cell line. The arrangement: key to FLIPR data IP (Kb): PAg = partial agonist; Ag = agonist; NA = not active. Conditions: human recombinant IP in HEK-293 EBNA cells; standard agonist Cicaprost; NA = no antagonism or Kb>=10,000 nM. The protocol:
as §1, §2, §3, §4

In assay [4] the target is T4, human prostanoid TP receptor (Homo sapiens, UniProt P21731).
T4 construct: expressed in transfected cells
T4 sequence (P21731 1-343): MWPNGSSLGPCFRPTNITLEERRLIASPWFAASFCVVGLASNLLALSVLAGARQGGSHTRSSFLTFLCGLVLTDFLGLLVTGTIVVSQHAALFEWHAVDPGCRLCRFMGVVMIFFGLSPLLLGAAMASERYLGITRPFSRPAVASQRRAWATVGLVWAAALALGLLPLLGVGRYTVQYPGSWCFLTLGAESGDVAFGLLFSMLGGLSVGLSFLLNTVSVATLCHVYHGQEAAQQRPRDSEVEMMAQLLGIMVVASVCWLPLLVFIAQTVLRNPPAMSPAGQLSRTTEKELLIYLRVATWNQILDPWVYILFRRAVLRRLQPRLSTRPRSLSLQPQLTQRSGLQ
As to the kind of experiment: FLIPR Ca2+ signaling antagonist assay, TP receptor stable cell line. Details: key to FLIPR data TP (Kb): PAg = partial agonist; Ag = agonist; NA = not active. Particulars: human recombinant TP in HEK-293 EBNA cells; standard agonist U-46619; NA = no antagonism or Kb>=10,000 nM. The protocol:
as §1, §2, §3, §4

T1 sequence (P43088 whole entry): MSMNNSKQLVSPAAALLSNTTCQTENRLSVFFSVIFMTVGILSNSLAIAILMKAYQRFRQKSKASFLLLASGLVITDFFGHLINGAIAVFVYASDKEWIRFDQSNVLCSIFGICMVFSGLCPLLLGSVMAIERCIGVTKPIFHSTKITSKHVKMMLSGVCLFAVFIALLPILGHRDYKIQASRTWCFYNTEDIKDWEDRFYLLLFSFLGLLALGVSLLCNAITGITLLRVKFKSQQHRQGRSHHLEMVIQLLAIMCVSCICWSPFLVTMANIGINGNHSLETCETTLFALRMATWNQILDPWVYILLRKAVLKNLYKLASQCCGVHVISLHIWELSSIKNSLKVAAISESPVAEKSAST

The term Kb denotes the affinity of an antagonist, worked out from how it opposes an agonist. For the compound `CC(C)Cn1ncc2cc(Cl)cc(Cn3ncc4cc(C(=O)O)ccc43)c21` [Compound 41, 1-(5-Chloro-1-isobutyl-1H-indazol-7-ylmethyl)-1H-indazole-5-carboxylic acid], the antagonist dissociation constant (Kb) in assay [1] is 0.07 µM; in assay [2], 0.73 µM; in assay [3], more than 10 µM; in assay [4] it was 0.04 µM.
The corresponding values for `CC(C)Cn1ncc2cc(Br)cc(Cn3ncc4cc(C(=O)O)ccc43)c21` [Compound 42, 1-(5-Bromo-1-isobutyl-1H-indazol-7-ylmethyl)-1H-indazole-5-carboxylic acid] are 0.04 µM, 2.3 µM, more than 10 µM and 0.16 µM.
The corresponding values for `CC(C)Cn1ncc2cc(F)cc(Cn3ncc4cc(C(=O)O)ccc43)c21` [Compound 43, 1-(5-Fluoro-1-isobutyl-1H-indazol-7-ylmethyl)-1H-indazole-5-carboxylic acid] are 0.7 µM, more than 10 µM, more than 10 µM and 0.45 µM.
Regarding `CC(C)Cn1ncc2cc(C(F)(F)F)cc(Cn3ncc4cc(C(=O)O)ccc43)c21` [Compound 44, 1-(1-Isobutyl-5-trifluoromethyl-1H-indazol-7-ylmethyl)-1H-indazole-5-carboxylic acid], the Kb in assay [1] is 0.15 µM; in assay [2] it was 1.5 µM. For the same compound, in assay [3], the “FLIPR data IP (Kb)” value is given as “PAg”. In assay [4], the “FLIPR data TP (Kb)” value was “Ag”.
The corresponding values for `CC(C)Cn1ncc2cc(OC(F)(F)F)cc(Cn3ncc4cc(C(=O)O)ccc43)c21` [Compound 45, 1-(1-Isobutyl-5-trifluoromethoxy-1H-indazol-7-ylmethyl)-1H-indazole-5-carboxylic acid] are 0.08 µM, 0.8 µM, “Ag” and “Ag”.
With `CC(C)n1ncc2cc(Br)cc(Cn3ncc4cc(C(=O)O)ccc43)c21` [Compound 46, 1-(5-Bromo-1-isopropyl-1H-indazol-7-ylmethyl)-1H-indazole-5-carboxylic acid], the Kb is 0.2 µM in assay [1], 3 µM in assay [2], more than 10 µM in assay [3] and 1.4 µM in assay [4].
With `CCC(CC)Cn1ncc2cc(Br)cc(Cn3ncc4cc(C(=O)O)ccc43)c21` [Compound 47, 1-[5-Bromo-1-(2-ethyl-butyl)-1H-indazol-7-ylmethyl]-1H-indazole-5-carboxylic acid], the antagonist equilibrium constant (Kb) in assay [1] was found to be 3 µM; in assay [2], 0.5 µM; in assay [3] it was 1 µM; in assay [4], 0.7 µM.
The corresponding values for `CCCn1ncc2cc(Cl)cc(Cn3ncc4cc(C(=O)O)ccc43)c21` [Compound 48] are 0.5 µM, more than 10 µM, more than 10 µM and 0.74 µM.
In the same order, the values of `CC(C)Cn1ncc2cc(Cl)cc(Cn3ncc4cc(C(=O)O)cnc43)c21` [Compound 49, 1-(5-Chloro-1-isobutyl-1H-indazol-7-ylmethyl)-1H-pyrazolo[3,4-b]pyridine-5-carboxylic acid] are 1.9 µM, 9.8 µM, 8.9 µM and 0.17 µM.
In the same order, the values of `CC(C)Cn1ncc2cc(Cl)cc(Cn3cnc4cc(C(=O)O)ccc43)c21` [Compound 50, 1-(5-Chloro-1-isobutyl-1H-indazol-7-ylmethyl)-1H-benzoimidazole-5-carboxylic acid] are more than 10 µM, more than 10 µM, more than 10 µM and 5 µM.
For `CC(C)Cn1ncc2cc(Cl)cc(Cn3cnc4cc(C(=O)O)cnc43)c21` [Compound 51, 3-(5-Chloro-1-isobutyl-1H-indazol-7-ylmethyl)-3H-imidazo[4,5-b]pyridine-6-carboxylic acid], the Kb in assay [1] is 4.9 µM; in assay [2] it was more than 10 µM; in assay [3], 8 µM; in assay [4], 0.28 µM.
The corresponding values for `CC(C)Cn1ncc2cc(Cl)cc(Cn3ccc4cc(C(=O)O)cnc43)c21` [Compound 52, 1-(5-Chloro-1-isobutyl-1H-indazol-7-ylmethyl)-1H-pyrrolo[2,3-b]pyridine-5-carboxylic acid] are 0.7 µM, 0.6 µM, 5.5 µM and 0.02 µM.
The corresponding values for `Cc1nn(Cc2cc(Br)cc3cnn(CC(C)C)c23)c2ccc(C(=O)O)cc12` [Compound 53, 1-(5-Bromo-1-isobutyl-1H-indazol-7-ylmethyl)-3-methyl-1H-indazole-5-carboxylic acid] are 0.07 µM, 5.7 µM, more than 10 µM and 1 µM.
The corresponding values for `Cc1nn(Cc2cc(Br)cc3cnn(CC(C)C)c23)c2ncc(C(=O)O)cc12` [Compound 54, 1-(5-Bromo-1-isobutyl-1H-indazol-7-ylmethyl)-3-methyl-1H-pyrazolo[3,4-b]pyridine-5-carboxylic HCl salt] are 0.6 µM, more than 10 µM, 9.5 µM and 1.6 µM.
With `CC(C)Cn1ncc2cc(C(F)(F)F)cc(Cn3cnc4cc(C(=O)O)ccc43)c21` [Compound 55, 1-(1-Isobutyl-5-trifluoromethyl-1H-indazol-7-ylmethyl)-1H-benzoimidazole-5-carboxylic acid], the Kb in assay [1] was found to be 3 µM; in assay [2] it was 4 µM; in assay [3], 8.9 µM. The “FLIPR data TP (Kb)” value in assay [4] was “Ag”.
